Measured values taken from PMC8752738, “A propolis-derived small molecule ameliorates metabolic syndrome in obese mice by targeting the CREB/CRTC2 transcriptional complex” (Nature Communications, 2022).
“And” between values parts separate entries of the source, which are not always exact repeats. Identical values can stand only once.

Assays:
[1] = tested on: gluconeogenic and lipogenic gene mRNA in primary hepatocytes; test: Quantitative PCR of gene expression in primary hepatocytes; type: cell-based, mouse; parameters: key to Lxra mRNA levels: mRNA level normalized to ribosomal L32 mRNA (internal control); key to Crtc2 mRNA levels / Srebf-1c mRNA levels / Srebf-2 mRNA levels / mRNA levels of G6pc / mRNA levels of CREB / mRNA levels of CRTC2: relative mRNA level, normalized to ribosomal L32; conditions: for Lxra mRNA levels, Mean / Srebf-2 mRNA levels, Mean / Srebf-1c mRNA levels, Mean / Crtc2 mRNA levels, Mean / Crtc2 mRNA levels / Lxra mRNA levels / Srebf-1c mRNA levels / Srebf-2 mRNA levels: Figure 7f; for Lxra mRNA levels, Mean / Srebf-2 mRNA levels, Mean / Srebf-1c mRNA levels, Mean / Crtc2 mRNA levels, Mean: mean of N=3; for Crtc2 mRNA levels / Lxra mRNA levels / Srebf-1c mRNA levels / Srebf-2 mRNA levels / mRNA levels of G6pc / mRNA levels of Pck1: single replicates; for mRNA of G6pc, mean / mRNA of Pck1, mean / mRNA levels of G6pc / mRNA levels of Pck1: Figure 9d; for mRNA of G6pc, mean / mRNA of Pck1, mean: group mean, N 6; for mRNA levels of CREB / mRNA levels of CRTC2 / mRNA levels of CREB, group mean (Mean 2) / mRNA levels of CRTC2, group mean (Mean 2): Supp. Fig.10 d; for mRNA levels of CREB / mRNA levels of CRTC2: individual replicates; for mRNA levels of CREB, group mean (Mean 2) / mRNA levels of CRTC2, group mean (Mean 2): n=6
Protocol: Total RNA from cells and tissues was extracted by Trizol (Invitrogen) and reverse-transcribed into cDNA using the prime script RT reagent kit with gDNA eraser (Takara). The mRNA levels were determined using the SYBR-green PCR kit (Takara) with ABIPRISM 7900HT Sequence detector (ABI) according to the manufacturer’s protocol. The quantitative qPCR primers used in this work are listed in Supplementary Table 1. Ribosomal L32 mRNA levels were used as an internal control.

[2] = Daily food intake; type: in vivo, mouse; conditions: for foodintake in DIO, mean / foodintake in DIO: DIO mice; for foodintake in DIO, mean: group mean, n=6; for foodintake in DIO: individual values; for foodintake of db/db: single animals; for foodintake of db/db, group mean: mean of APC group, N=5
[3] = Histological analysis of liver and adipose tissue; type: in vivo, mouse; conditions: DIO and db/db mice, 20 mg/kg, 5 weeks
Protocol: Fig. 5 APC improves hyperlipidemia of obese mice. DIO mice were continuously i.p. injected with control vehicle or APC with indicated doses (APC, 0, 10, and 20 mg/kg) or vehicle (Ctrl) one time daily for 5 weeks (n = 5–9). a Body-weight curves of these mice (left). Area under curve (AUC) analysis of curves is shown as a scatter chart at the right. […] Data are represented as mean ± SEM. *P < 0.05; **P < 0.01; P values were determined by one-way ANOVA followed Dunnett’s multiple comparisons test. The triglyceride (TG) contents in the serum (c) and liver (d) of these mice. The contents of (e) total cholesterol (TC), LDL cholesterol (LDL-C), and HDL cholesterol (HDL-C), (f) VLDL-C, and (g) nonesterified fatty acid (NEFA) in the serum of these mice. h The contents of hepatic NEFA and (i) glycerol in these mice, which were normalized by hepatic protein levels as determined by BCA assay. Data are represented as mean ± SEM (n = 5–6). *P < 0.05; **P < 0.01; P values were determined by one-way ANOVA followed Dunnett’s multiple comparisons test. j Histological analysis of liver and epididymis fat (WAT) from DIO mice treated with APC (20 mg/kg) or vehicle for 5 weeks. Tissues were stained with hematoxylin and eosin. Scale bars represent 100 μm. […]

CC(C)=CCc1cc(C=CC(=O)O)cc(CC=C(C)C)c1O [APC, 3,5-diprenyl-4-hydroxycinnamic acid]
Lxra mRNA levels, Mean ([1]; LV-CRTC2(S171A), Ctrl mean 1.393): 0.7111 | Srebf-2 mRNA levels, Mean ([1]; LV-CRTC2(S171A), Ctrl mean 1.711): 0.86 | Srebf-1c mRNA levels, Mean ([1]; LV-CRTC2(S171A), Ctrl mean 1.819): 1.166 | Crtc2 mRNA levels, Mean ([1]; LV-CRTC2(S171A), Ctrl mean 153.3): 159.3 | Crtc2 mRNA levels ([1]; LV-Crtc2-S171A): 189.700 and 115.000 and 173.200 | Lxra mRNA levels ([1]; LV-Crtc2-S171A): 0.732 and 0.747 and 0.654 | Srebf-1c mRNA levels ([1]; LV-Crtc2-S171A): 1.132 and 1.102 and 1.263 | Srebf-2 mRNA levels ([1]; LV-Crtc2-S171A): 0.860 and 0.819 and 0.901 | Crtc2 mRNA levels, Mean ([1]; LV-GFP, Ctrl mean 0.9233): 1.106 | Lxra mRNA levels, Mean ([1]; LV-GFP, Ctrl mean 0.93): 0.8542 | Srebf-2 mRNA levels, Mean ([1]; LV-GFP, Ctrl mean 0.9967): 1.087 | Srebf-1c mRNA levels, Mean ([1]; LV-GFP, Ctrl mean 1.053): 0.9578 | Crtc2 mRNA levels ([1]; LV-Gfp): 1.240 and 0.976 and 1.101 | Lxra mRNA levels ([1]; LV-Gfp): 0.950 and 0.709 and 0.904 | Srebf-1c mRNA levels ([1]; LV-Gfp): 0.940 and 1.083 and 0.850 | Srebf-2 mRNA levels ([1]; LV-Gfp): 1.040 and 1.162 and 1.060 | mRNA of G6pc, mean ([1]; +Gluc): 73.01 | mRNA of Pck1, mean ([1]; +Gluc): 64.35 | mRNA levels of G6pc ([1]; +Gluc): 67.250 and 68.919 and 73.819 and 74.050 and 79.623 and 74.414 | mRNA levels of Pck1 ([1]; +Gluc): 68.035 and 58.064 and 57.318 and 65.734 and 69.952 and 67.024 | mRNA of G6pc, mean ([1]; -Gluc): 0.2875 | mRNA of Pck1, mean ([1]; -Gluc): 0.3152 | mRNA levels of G6pc ([1]; -Gluc): 0.207 and 0.251 and 0.273 and 0.385 and 0.234 and 0.375 | mRNA levels of Pck1 ([1]; -Gluc): 0.283 and 0.267 and 0.371 and 0.342 and 0.306 and 0.322 | mRNA levels of CREB ([1]; +Gluc): 0.685 and 0.852 and 0.9121 and 0.8012 and 0.8061 and 0.6905 | mRNA levels of CRTC2 ([1]; +Gluc): 0.8083 and 0.8216 and 1.1926 and 0.9078 and 0.9957 and 1.2399 | mRNA levels of CREB, group mean (Mean 2) ([1]; +Gluc, Ctrl mean 0.8616): 0.7912 | mRNA levels of CRTC2, group mean (Mean 2) ([1]; +Gluc, Ctrl mean 0.8879): 0.9943 | mRNA levels of CREB ([1]; -Gluc): 0.9172 and 0.8231 and 0.8735 and 0.9451 and 0.728 and 1.0773 | mRNA levels of CRTC2 ([1]; -Gluc): 1.0775 and 1.0279 and 1.0015 and 1.1906 and 1.0107 and 1.2086 | mRNA levels of CREB, group mean (Mean 2) ([1]; -Gluc, Ctrl mean 0.9538): 0.894 | mRNA levels of CRTC2, group mean (Mean 2) ([1]; -Gluc, Ctrl mean 1.009): 1.086 | mRNA levels of Lxrα, Srebf1 and Srebf2 with overexpressed Crtc2-S171A ([1]; primary hepatocytes, APC 10 μM, 8-h): effectively reduced | mRNA accumulation of G6pc, Pck1 and Pgc-1α induced by glucagon ([1]; primary hepatocytes, APC 1, 5 or 50 μM): remarkably decreased | foodintake in DIO, mean ([2]; APC 10mg/kg): 3.935 g/mouse/day | foodintake in DIO ([2]; APC 10mg/kg): 3.44 g/mouse/day and 4.55 g/mouse/day and 3.83 g/mouse/day and 3.87 g/mouse/day and 4.39 g/mouse/day and 3.53 g/mouse/day | foodintake in DIO, mean ([2]; APC 20mg/kg): 3.517 g/mouse/day | foodintake in DIO ([2]; APC 20mg/kg): 3.89 g/mouse/day and 3.58 g/mouse/day and 3.67 g/mouse/day and 3.06 g/mouse/day and 3.73 g/mouse/day and 3.17 g/mouse/day | foodintake of db/db ([2]; db/db mice, day 1): 6.30 g/per mouse/24h and 5.90 g/per mouse/24h and 7.80 g/per mouse/24h and 7.20 g/per mouse/24h and 6.43 g/per mouse/24h | foodintake of db/db, group mean ([2]; db/db mice, day 2): 6.34 g/per mouse/24h | foodintake of db/db ([2]; db/db mice, day 2): 5.90 g/per mouse/24h and 6.90 g/per mouse/24h and 7.10 g/per mouse/24h and 7.50 g/per mouse/24h and 6.30 g/per mouse/24h | foodintake of db/db, group mean ([2]; db/db mice, day 3): 6.44 g/per mouse/24h | foodintake of db/db ([2]; db/db mice, day 3): 6.10 g/per mouse/24h and 7.30 g/per mouse/24h and 5.80 g/per mouse/24h and 7.20 g/per mouse/24h and 6.20 g/per mouse/24h | foodintake of db/db, group mean ([2]; db/db mice, day 4): 6.5 g/per mouse/24h | foodintake of db/db ([2]; db/db mice, day 4): 7.40 g/per mouse/24h and 6.30 g/per mouse/24h (2×) and 6.20 g/per mouse/24h and 5.90 g/per mouse/24h | foodintake of db/db, group mean ([2]; db/db mice, day 5): 6.68 g/per mouse/24h | foodintake of db/db ([2]; db/db mice, day 5): 5.70 g/per mouse/24h and 7.20 g/per mouse/24h and 6.80 g/per mouse/24h and 7.90 g/per mouse/24h and 5.80 g/per mouse/24h | foodintake of db/db, group mean ([2]; db/db mice, day 6): 6.9 g/per mouse/24h | foodintake of db/db ([2]; db/db mice, day 6): 8.00 g/per mouse/24h and 6.80 g/per mouse/24h and 6.10 g/per mouse/24h and 7.20 g/per mouse/24h and 6.40 g/per mouse/24h | foodintake of db/db, column mean over days 1-6 ([2]; db/db mice, Mean of APC, two-way RM ANOVA): 6.737 g/per mouse/24h | daily food intake ([2]; obese mice, 2 weeks of APC injection): no significant effects | sizes of lipid droplets in liver and adipose tissues [3]: remarkably reduced
